Like-named read-outs stand apart in the source and are kept apart here.
Molecular target: T1, human TTK (Homo sapiens, UniProt P33981)
T1 construct: Active TTK was purchased from Invitrogen as an amino terminal GST fusion of full length human TTK; purchased Invitrogen
T1 sequence (P33981 1-857): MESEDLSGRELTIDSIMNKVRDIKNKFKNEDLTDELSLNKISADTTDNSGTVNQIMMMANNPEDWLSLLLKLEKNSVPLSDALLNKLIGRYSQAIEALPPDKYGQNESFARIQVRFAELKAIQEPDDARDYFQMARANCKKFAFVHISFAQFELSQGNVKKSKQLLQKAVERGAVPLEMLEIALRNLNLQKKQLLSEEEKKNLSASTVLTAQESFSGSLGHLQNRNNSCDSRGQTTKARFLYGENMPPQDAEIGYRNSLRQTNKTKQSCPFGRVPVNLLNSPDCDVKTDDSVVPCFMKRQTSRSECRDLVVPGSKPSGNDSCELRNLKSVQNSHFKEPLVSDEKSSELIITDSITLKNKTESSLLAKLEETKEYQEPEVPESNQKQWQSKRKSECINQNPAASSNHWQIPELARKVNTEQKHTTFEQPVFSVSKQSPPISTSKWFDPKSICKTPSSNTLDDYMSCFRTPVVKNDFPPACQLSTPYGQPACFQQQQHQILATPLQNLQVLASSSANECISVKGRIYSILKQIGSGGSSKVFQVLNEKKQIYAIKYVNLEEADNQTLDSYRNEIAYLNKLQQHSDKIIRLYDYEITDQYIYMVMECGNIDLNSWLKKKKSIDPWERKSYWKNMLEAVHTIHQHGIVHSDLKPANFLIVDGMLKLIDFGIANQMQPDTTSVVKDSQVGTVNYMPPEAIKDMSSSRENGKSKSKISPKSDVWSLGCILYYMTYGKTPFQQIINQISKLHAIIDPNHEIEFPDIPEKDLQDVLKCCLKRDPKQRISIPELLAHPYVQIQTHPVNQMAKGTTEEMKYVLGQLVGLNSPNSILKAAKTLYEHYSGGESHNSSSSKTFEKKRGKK
Test: TTK inhibition assay (indirect ELISA)
Type: biochemical
Procedure: Active TTK was purchased from Invitrogen as an amino terminal GST fusion of full length human TTK.
TTK activity was measured using an indirect ELISA detection system.
Compounds were pre-incubated in the presence of enzyme for 5 minutes prior to addition of ATP and the activity remaining quantified using the above described activity assay. The % Inhibition of a compound was determined using the following formula; % Inhibition=100×(1−(experimental value−background value)/(high activity control−background value)). The IC50 value was determined using a non-linear 4 point logistic curve fit (XLfit4, IDBS) with the formula; (A+(B/(1+((x/C)^D)))), where A=background value, B=range, C=inflection point, D=curve fit parameter.

[1] = Table 1, 16 μM ATP (asterisk), read-out: TTK IC50 Range
[2] = Table 2, 16 μM ATP (asterisk), read-out: TTK IC50 Range
[3] = 16 μM ATP (Sigma cat# A7699), read-out: TTK IC50 Range (denoted with an asterisk)
[4] = 100 μM ATP, read-out: TTK IC50 Range

IC50 [4] | Structure (SMILES) | also measured
< 0.1 µM | Cc1cc(-c2cnn3c(NCCN4CCOCC4)cc(NCc4cccnc4)nc23)ccc1C(=O)NC1CC1 [Example C75] | –
< 0.1 µM | Cc1cc(-c2cnn3c(NCCN4CCOCC4)cc(NCC4CC4)nc23)ccc1C(=O)NC1CC1 [Example C76] | –
< 0.1 µM | COCCNc1cc(NC2CCCC2)nc2c(-c3ccc(C(=O)NC4CC4)c(C)c3)cnn12 [Example C80] | –
< 0.1 µM | Cc1cc(-c2cnn3c(NCCO)cc(NC4CCCC4)nc23)ccc1C(=O)NC1CC1 [Example C81] | –
< 0.1 µM | CC(=O)N1CCN(c2cc(NCC3CCOCC3)n3ncc(-c4ccc(C(=O)NC5CC5)c(C)c4)c3n2)CC1 [Example C84] | –
0.1 to 0.5 µM | Cc1cc(-c2cnn3c(NCCN4CCOCC4)cc(Oc4cccc(S(C)(=O)=O)c4)nc23)ccc1C(=O)NC1CC1 [Example C86] | –
< 0.1 µM | Cc1cc(-c2cnn3c(NCCN4CCOCC4)cc(Oc4cccc(N5CCOCC5)c4)nc23)ccc1C(=O)NC1CC1 [Example C91] | –
< 0.1 µM | Cc1cc(-c2cnn3c(NCC4(CO)CCOCC4)cc(NC4CCOCC4)nc23)ccc1C(=O)NC1CC1 [Example C93] | –
0.1 to 0.5 µM | Cc1cc(-c2cnn3c(NCCN4CCOCC4)cc(OC4COC4)nc23)ccc1C(=O)NC1CC1 [Example C101] | –
< 0.1 µM | Cc1cc(-c2cnn3c(NCC4CCOCC4)cc(NC4COC4)nc23)ccc1C(=O)NC1CC1 [Example C102] | –
0.1 to 0.5 µM | Cc1cc(-c2cnn3c(NCC4(N(C)C)CCOCC4)cc(Oc4ccccc4)nc23)ccc1C(=O)NC1CC1 [Example C106] | –
< 0.1 µM | Cc1cc(-c2cnn3c(NCC4CCOCC4)cc(NC(CO)CO)nc23)ccc1C(=O)NC1CC1 [Example C110] | –
< 0.1 µM | Cc1cc(-c2cnn3c(NCC4CCOCC4)cc(OC4CCN(C5COC5)CC4)nc23)ccc1C(=O)NC1CC1 [Example C115] | –
< 0.1 µM | Cc1cc(-c2cnn3c(NCC4CCOCC4)cc(OCCN4CCOCC4)nc23)ccc1C(=O)NC1CC1 [Example C117] | –

More lines, now with the values behind:

Structure (SMILES) | IC50 [4] | also measured
Cc1cc(-c2cnn3c(NCC4CCOCC4)nc(N(C)C)nc23)ccc1C(=O)NC1CC1 [Example A1, N-Cyclopropyl-4-(2-(dimethylamino)-4-(((tetrahydro-2H-pyran-4-yl)methyl)amino)pyrazolo[1,5-a][1,3,5]triazin-8-yl)-2-methylbenzamide] | – | IC50 [1]: 0.1 to 0.5 µM
O=C(NC1CC1)c1ccc(-c2cnn3c(NCCN4CCOCC4)nc(N4CCC(O)CC4)nc23)cc1 [Example A9, N-cyclopropyl-4-(2-(4-hydroxypiperidin-1-yl)-4-((2-morpholinoethyl)amino)pyrazolo[1,5-a][1,3,5]triazin-8-yl)benzamide] | – | IC50 [1]: > 0.5 µM
COCCNc1cc(Oc2cccnc2)nc2c(-c3ccc(C(=O)NC4CC4)cc3)cnn12 [Example B4, N-cyclopropyl-4-(7-((2-methoxyethyl)amino)-5-(pyridin-3-yloxy)pyrazolo[1,5-a]pyrimidin-3-yl)benzamide] | – | IC50 [2]: < 0.1 µM
Cc1cc(-c2cnn3c(NCC4CCOCC4)cc(NC4CCCC4)nc23)ccc1NC(=O)C1CC1 [Example B15, N-(4-(5-(cyclopentylamino)-7-(((tetrahydro-2H-pyran-4-yl)methyl)amino)pyrazolo[1,5-a]pyrimidin-3-yl)-2-methylphenyl)cyclopropanecarboxamide] | – | IC50 [2]: > 0.5 µM
Cc1cc(-c2cnn3c(NCC(C)(C)O)cc(Oc4ccccc4)nc23)ccc1C(=O)NC1CC1 [Example B27, N-cyclopropyl-4-(7-((2-hydroxy-2-methylpropyl)amino)-5-phenoxypyrazolo[1,5-a]pyrimidin-3-yl)-2-methylbenzamide] | – | IC50 [2]: < 0.1 µM
Cc1cc(-c2cnn3c(NCC(C)(C)O)cc(Oc4cccnc4)nc23)ccc1C(=O)NC1CC1 [Example B28, N-cyclopropyl-4-(7-((2-hydroxy-2-methylpropyl)amino)-5-(pyridin-3-yloxy)pyrazolo[1,5-a]pyrimidin-3-yl)-2-methylbenzamide] | – | IC50 [2]: < 0.1 µM
CC[C@H](Nc1cc(NCC2CCOCC2)n2ncc(-c3ccc(C(=O)NC4CC4)c(C)c3)c2n1)[C@H](C)O [Example B30, N-cyclopropyl-4-(5-(((2S,3S)-2-hydroxypentan-3-yl)amino)-7-(((tetrahydro-2H-pyran-4-yl)methyl)amino)pyrazolo[1,5-a]pyrimidin-3-yl)-2-methylbenzamide] | – | IC50 [2]: < 0.1 µM
Cc1cc(-c2cnn3c(NCC(C)(C)O)cc(NC4CCOCC4)nc23)ccc1C(=O)NC1CC1 [Example B32, N-cyclopropyl-4-(7-((2-hydroxy-2-methylpropyl)amino)-5-((tetrahydro-2H-pyran-4-yl)amino)pyrazolo[1,5-a]pyrimidin-3-yl)-2-methylbenzamide] | – | IC50 [2]: < 0.1 µM
Cc1cc(-c2cnn3c(NC[C@H]4CC[C@H](O)CC4)cc(NC4CCOCC4)nc23)ccc1C(=O)NC1CC1 [Example B33, N-cyclopropyl-4-(7-((((1r,4r)-4-hydroxycyclohexyl)-methyl)amino)-5-((tetrahydro-2H-pyran-4-yl)amino)pyrazolo[1,5-a]pyrimidin-3-yl)-2-methylbenzamide] | – | IC50 [2]: < 0.1 µM
O=C(NC1CC1)c1ccc(-c2cnn3c(NCCCN4CCOCC4)nc(Oc4ccccc4)nc23)cc1 [Example C1, N-cyclopropyl-4-(4-((3-morpholinopropyl)amino)-2-phenoxypyrazolo[1,5-a][1,3,5]triazin-8-yl)benzamide] | – | IC50 [3]: < 0.1 µM
CC(C)NC(=O)c1ccc(-c2cnn3c(NCC4CCOCC4)nc(Oc4ccccc4)nc23)cc1 [Example C2] | – | IC50 [3]: 0.1 to 0.5 µM
CC(C)C(=O)Nc1ccc(-c2cnn3c(NCC4CCOCC4)nc(Oc4ccccc4)nc23)cc1 [Example C3] | – | IC50 [3]: > 0.5 µM
CC(C)NC(=O)c1ccc(-c2cnn3c(NCC4CCOCC4)nc(OC4CCCC4)nc23)cc1 [Example C4] | – | IC50 [3]: 0.1 to 0.5 µM
COCCNc1nc(Oc2ccccc2)nc2c(-c3ccc(C(=O)NC4CC4)cc3)cnn12 [Example C6] | – | IC50 [3]: < 0.1 µM
CN(c1nc(NCC2CCOCC2)n2ncc(-c3ccc(C(=O)NC4CC4)c(F)c3)c2n1)C1CCCCC1 [Example C15] | – | IC50 [3]: < 0.1 µM
O=C(NC1CC1)c1ccc(-c2cnn3c(NCC4CCOCC4)nc(N4CCCCC4)nc23)cc1Cl [Example C16] | – | IC50 [3]: < 0.1 µM
Cc1cc(-c2cnn3c(NCC4CCOCC4)nc(Oc4ccccc4)nc23)ccc1NC(=O)C1CC1 [Example C17] | – | IC50 [3]: > 0.5 µM
Cc1cc(-c2cnn3c(NCC4CCOCC4)nc(NC4CCCC4)nc23)ccc1NC(=O)C1CC1 [Example C18] | – | IC50 [3]: > 0.5 µM
Cc1cc(-c2cnn3c(NCC4CCOCC4)cc(NC[C@@H]4CCCO4)nc23)ccc1C(=O)NC1CC1 [Example C29, (S)-N-cyclopropyl-2-methyl-4-(7-(((tetrahydro-2H-pyran-4-yl)methyl)amino)-5-(((tetrahydrofuran-2-yl)methyl)amino)pyrazolo[1,5-a]pyrimidin-3-yl)benzamide] | < 0.1 µM | –
Cc1cc(-c2cnn3c(NCC4CCOCC4)cc(Oc4ccncc4)nc23)ccc1C(=O)NC1CC1 [Example C50] | > 0.5 µM | –
Cc1cc(-c2cnn3c(NCCN4CCOCC4)cc(NC4CCOCC4)nc23)ccc1C(=O)NC1CC1 [Example C53] | < 0.1 µM | –
Cc1cc(-c2cnn3c(NCCN4CCOCC4)cc(Nc4ccccc4)nc23)ccc1C(=O)NC1CC1 [Example C60] | < 0.1 µM | –
Cc1cc(-c2cnn3c(NC[C@H]4CCCO4)cc(NC4CCOCC4)nc23)ccc1C(=O)NC1CC1 [Example C63] | < 0.1 µM | –
Cc1cc(-c2cnn3c(NC[C@@H]4CCCO4)cc(NC4CCCC4)nc23)ccc1C(=O)NC1CC1 [Example C64] | < 0.1 µM | –
Cc1cc(-c2cnn3c(NC[C@@H]4CCCO4)cc(NC4CCOCC4)nc23)ccc1C(=O)NC1CC1 [Example C65] | < 0.1 µM | –
Cc1cc(-c2cnn3c(NCC4CCOCC4)cc(N4CCC(O)CC4)nc23)ccc1C(=O)NC1CC1 [Example C67] | < 0.1 µM | –
Cc1cc(-c2cnn3c(NCC4CCOCC4)cc(N4CC(O)C4)nc23)ccc1C(=O)NC1CC1 [Example C69] | 0.1 to 0.5 µM | –
Cc1cc(-c2cnn3c(NCCCn4ccnc4)cc(NC4CCCC4)nc23)ccc1C(=O)NC1CC1 [Example C70] | < 0.1 µM | –
Cc1cc(-c2cnn3c(NCC4CCOCC4)cc(NCc4ccccn4)nc23)ccc1C(=O)NC1CC1 [Example C73] | < 0.1 µM | –
Cc1cc(-c2cnn3c(NCC4CCOCC4)cc(N4C5CCC4COC5)nc23)ccc1C(=O)NC1CC1 [Example C112] | < 0.1 µM | –

From patent publication US9573954B2, “Pyrazolopyrimidine compounds” (University Health Network, priority 2012, dated 2017)
